pIC50: −log10 of the molar value. Some results are limits rather than exact numbers.

T1 sequence (Q93009 208-1102): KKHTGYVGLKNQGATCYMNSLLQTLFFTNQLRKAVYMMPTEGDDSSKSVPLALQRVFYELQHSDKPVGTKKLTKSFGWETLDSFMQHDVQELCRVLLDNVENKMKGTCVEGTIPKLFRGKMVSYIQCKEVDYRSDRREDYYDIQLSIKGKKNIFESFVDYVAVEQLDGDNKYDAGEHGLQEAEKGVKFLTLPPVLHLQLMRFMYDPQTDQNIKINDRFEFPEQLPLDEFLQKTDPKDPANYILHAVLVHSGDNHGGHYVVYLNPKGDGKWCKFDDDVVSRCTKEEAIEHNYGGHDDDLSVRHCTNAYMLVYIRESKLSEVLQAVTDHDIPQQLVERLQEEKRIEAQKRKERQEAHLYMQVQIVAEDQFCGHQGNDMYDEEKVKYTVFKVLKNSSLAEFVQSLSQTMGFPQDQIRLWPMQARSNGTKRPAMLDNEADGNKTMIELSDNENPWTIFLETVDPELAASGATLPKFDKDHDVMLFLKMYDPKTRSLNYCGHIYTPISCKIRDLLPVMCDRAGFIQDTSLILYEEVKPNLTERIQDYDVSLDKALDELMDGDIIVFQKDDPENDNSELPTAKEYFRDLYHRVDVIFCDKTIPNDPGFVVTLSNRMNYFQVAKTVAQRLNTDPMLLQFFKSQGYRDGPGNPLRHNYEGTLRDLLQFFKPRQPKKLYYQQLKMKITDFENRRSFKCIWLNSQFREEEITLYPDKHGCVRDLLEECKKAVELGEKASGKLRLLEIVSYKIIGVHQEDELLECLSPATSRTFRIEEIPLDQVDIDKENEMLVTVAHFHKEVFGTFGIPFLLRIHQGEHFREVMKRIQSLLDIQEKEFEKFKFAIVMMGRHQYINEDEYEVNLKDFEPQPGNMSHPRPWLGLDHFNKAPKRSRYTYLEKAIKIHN

This experiment has as its target T1, USP7 (Homo sapiens, UniProt Q93009).
T1 construct: USP7, construct USP7 (208-1102) 6*His, Viva Biotech; initiator Met (N); TEV site (C); 6*His (C); purchased Viva Biotech
In words: USP7 Assay A and B (Ubiquitin-Rhodamine 110 assay). It counts as biochemical. Conditions: Ub-Rh110 substrate 25 nM, read-out: USP7_IC50. Here is the method: Each assay was performed in a final volume of 15 μL in assay buffer containing 20 mM Tris-HCl (pH 8.0, (1M Tris-HCl, pH 8.0 solution; Corning 46-031-CM)), 1 mM GSH (L-Glutathione reduced; Sigma #G4251), 0.03% BGG (0.22 μM filtered, Sigma, #G7516-25G), and 0.01% Triton X-100 (Sigma, #T9284-10L). Nanoliter quantities of either an 8-point or 10-point, 3-fold serial dilution in DMSO was pre-dispensed into assay plates (Perkin Elmer, ProxiPlate-384 F Plus, #6008269) for a final test concentration range of either 25 μM to 11 nM or 25 μM to 1.3 nM, respectively. The final concentration of the enzyme (USP7, construct USP7 (208-1102) 6*His, Viva Biotech) in the assay was 62.5 pM. Final substrate (Ub-Rh110; Ubiquitin-Rhodamine 110, R&D Systems #U-555) concentration was 25 nM with [Ub-Rh110]<<Km. 5 μL of 2× enzyme was added to the assay plates (pre-stamped with compound) and preincubated with USP7 for 30 min. 5 μL of 2×Ub-Rh110 was then added to assay plates. Plates were incubated stacked for 20 min at room temperature before 5 μL of stop solution (final concentration of 10 mM citric acid in assay buffer (Sigma, #251275-500G)). Fluorescence was read on the Envision (Excitation at 485 nm and Emission at 535 nm; Perkin Elmer) or on the PheraSTAR (Excitation at 485 nm and Emission at 535 nm; BMG Labtech).
Each assay was performed in a final volume of 20 μL in assay buffer containing 20 mM Tris-HCl (pH 8.0, (1M Tris-HCl, pH 8.0 solution; Corning 46-031-CM)), 2 mM CaCl2 (1M calcium chloride solution; Sigma #21114), 1 mM GSH (L-Glutathione reduced; Sigma #G4251), 0.01% Prionex (0.22 μM filtered, Sigma #G-0411), and 0.01% Triton X-100. Stock compound solutions were stored at −20° C. as 10 mM in DMSO. Up to 1 month prior to the assay, 2 mM test compounds were pre-dispensed into assay plates (Black, low volume; Corning #3820) and frozen at −20° C. Prestamped assay plates were allowed to warm to room temperature on the day of the assay. For the screen, 100 nL of 2 mM was pre-dispensed for a final screening concentration of 10 μM (DMSO(fc)=0.5%). For follow-up studies, 250 nL of an 8-point, 3-fold serial dilution in DMSO was pre-dispensed into assay plates for a final test concentration of 25 μM-11 nM (1.25c % DMSO final concentration). Unless otherwise indicated, all follow-up assays were run on triplecate plates. Enzyme (USP7, construct Met (208-1102)-TEV-6*His; Viva Q93009-1) concentration and incubation times were optimized for the maximal signal-to-background while maintaining initial velocity conditions at a fixed substrate concentration. The final concentration of the enzyme in the assay was either 75 pM or 250 pM. Final substrate (Ub-Rh110; Ubiquitin-Rhodamine 110, R&D Systems (biotechne)#U-555) concentration was 25 nM with [Ub-Rh110]<<Km. Compounds were either not preincubated or preincubated with USP7 between 30 to 120 min prior to the addition of 10 μL of 2×Ub-Rh110 to compound plates. Plates were incubated stacked for either 23 or 45 min at room temperature before fluorescence was read on the Envision (Excitation at 485 nm and Emission at 535 nm; Perkin Elmer) or on the PheraSTAR (Excitation at 485 nm and Emission at 535 nm; BMG Labtech).
Data from USP7 Assays A and B were reported as percent inhibition (inh) compared with control wells based on the following equation: % inh=1−((FLU−AveLow)/(AveHigh−AveLow)) where FLU=measured Fluorescence, AveLow=average Fluorescence of no enzyme control (n=16), and AveHigh=average Fluorescence of DMSO control (n=16). IC50 values were determined by curve fitting of the standard 4 parameter logistic fitting algorithm included in the Activity Base software package: IDBS XE Designer Model205. Data was fitted using the Levenburg Marquardt algorithm.
On to “3-(4-fluoro-3-methoxyphenyl)-6-{[1-(4-fluorobenzoyl)-4-hydroxypiperidin-4-yl]methyl}-6H,7H-[1,2]thiazolo[4,5-d]pyrimidin-7-one [Compound I-9]”, for which the pIC50 was less than 5.00.
The value for `O=C(c1ccc(F)cc1)N1CCC(O)(Cn2cnc3c(-c4ccccc4)nsc3c2=O)CC1` [Compound I-1, 6-{[1-(4-fluorobenzoyl)-4-hydroxypiperidin-4-yl]methyl}-3-phenyl-6H,7H-[1,2]thiazolo[4,5-d]pyrimidin-7-one] was less than 5.00; that for `COc1ccc(-c2nsc3c(=O)n(CC4(O)CCN(C(=O)c5ccc(F)cc5)CC4)cnc23)cc1` [Compound I-2, 6-{[1-(4-fluorobenzoyl)-4-hydroxypiperidin-4-yl]methyl}-3-(4-methoxyphenyl)-6H,7H-[1,2]thiazolo[4,5-d]pyrimidin-7-one] was 5.00 to 6.00.
Under `COc1ccc(C(=O)N2CCC(O)(Cn3cnc4c(-c5ccc(F)cc5)nsc4c3=O)CC2)cc1` [Compound I-3, 3-(4-fluorophenyl)-6-{[4-hydroxy-1-(4-methoxybenzoyl)piperidin-4-yl]methyl}-6H,7H-[1,2]thiazolo[4,5-d]pyrimidin-7-one] stands 5.00 to 6.00.
The value for `O=C(c1ccc(F)cc1)N1CCC(O)(Cn2cnc3c(-c4cccc(CO)c4)nsc3c2=O)CC1` [Compound I-4, 6-{[1-(4-fluorobenzoyl)-4-hydroxypiperidin-4-yl]methyl}-3-[3-(hydroxymethyl)phenyl]-6H,7H-[1,2]thiazolo[4,5-d]pyrimidin-7-one] was 5.00 to 6.00.
Take `O=C(c1ccc(F)cc1)N1CCC(O)(Cn2cnc3c(-c4ccc(F)cc4)n[nH]c3c2=O)CC1` [Compound I-5, 6-{[1-(4-fluorobenzoyl)-4-hydroxypiperidin-4-yl]methyl}-3-(4-fluorophenyl)-1H,6H,7H-pyrazolo[4,3-d]pyrimidin-7-one]: the pIC50 was 6.00 to 6.30.
As for `COc1ccc(-c2n[nH]c3c(=O)n(CC4(O)CCN(C(=O)c5ccc(F)cc5)CC4)cnc23)cc1` [Compound I-6, 6-{[1-(4-fluorobenzoyl)-4-hydroxypiperidin-4-yl]methyl}-3-(4-methoxyphenyl)-1H, 6H,7H-pyrazolo[4,3-d]pyrimidin-7-one], the pIC50 was more than 6.30.
As to `COc1ccc(C(=O)N2CCC(O)(Cn3cnc4c(-c5ccccc5)n[nH]c4c3=O)CC2)cc1` [Compound I-7, 6-{[4-hydroxy-1-(4-methoxybenzoyl)piperidin-4-yl]methyl}-3-phenyl-1H,6H,7H-pyrazolo[4,3-d]pyrimidin-7-one], the pIC50 is 5.00 to 6.00.
The value for `COc1ccc(C(=O)N2CCC(O)(Cn3cnc4c(-c5ccccc5)nsc4c3=O)CC2)cc1` [Compound I-8, 6-{[4-hydroxy-1-(4-methoxybenzoyl)piperidin-4-yl]methyl}-3-phenyl-6H,7H-[1,2]thiazolo[4,5-d]pyrimidin-7-one] was 5.00 to 6.00; that for `CN1CCN(c2ccc(C(=O)N3CCC(O)(Cn4cnc5c(-c6ccc(F)cc6)nsc5c4=O)CC3)nc2)CC1` [Compound I-10, 3-(4-fluorophenyl)-6-({4-hydroxy-1-[5-(4-methylpiperazin-1-yl)pyridine-2-carbonyl]piperidin-4-yl}methyl)-6H,7H-[1,2]thiazolo[4,5-d]pyrimidin-7-one] was less than 5.00; that for `CC(CC(=O)N1CCC(O)(Cn2cnc3c(-c4ccccc4)nsc3c2=O)CC1)c1ccccc1` (stereo not drawn) [Compound I-11, 6-{[4-hydroxy-1-(3-phenylbutanoyl)piperidin-4-yl]methyl}-3-phenyl-6H,7H-[1,2]thiazolo[4,5-d]pyrimidin-7-one] was 6.00 to 6.30.
The value for `C[C@@H](CC(=O)N1CCC(O)(Cn2cnc3c(-c4ccccc4)nsc3c2=O)CC1)c1ccccc1` [Compound I-12, 6-({4-hydroxy-1-[(3 S)-3-phenylbutanoyl]piperidin-4-yl}methyl)-3-phenyl-6H,7H-[1,2]thiazolo[4,5-d]pyrimidin-7-one] was more than 6.30.
